Activity calls are given as the source filed them.
Columns and labels:
Cytochrome P450 2C9 = Cytochrome P450 2C9 (Homo sapiens, UniProt P11712)
Cytochrome P450 2D6 = Cytochrome P450 2D6 (Homo sapiens, UniProt P10635);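 also: CYP2D6 member of a cytochrome P450 panel assay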
Cytochrome P450 1A2 = target: T1, Cytochrome P450 1A2 (Homo sapiens, UniProt P05177);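 also: PubChem cytochrome P450 panel assay, CYP1A2 panel member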
T1 sequence (P05177 whole entry): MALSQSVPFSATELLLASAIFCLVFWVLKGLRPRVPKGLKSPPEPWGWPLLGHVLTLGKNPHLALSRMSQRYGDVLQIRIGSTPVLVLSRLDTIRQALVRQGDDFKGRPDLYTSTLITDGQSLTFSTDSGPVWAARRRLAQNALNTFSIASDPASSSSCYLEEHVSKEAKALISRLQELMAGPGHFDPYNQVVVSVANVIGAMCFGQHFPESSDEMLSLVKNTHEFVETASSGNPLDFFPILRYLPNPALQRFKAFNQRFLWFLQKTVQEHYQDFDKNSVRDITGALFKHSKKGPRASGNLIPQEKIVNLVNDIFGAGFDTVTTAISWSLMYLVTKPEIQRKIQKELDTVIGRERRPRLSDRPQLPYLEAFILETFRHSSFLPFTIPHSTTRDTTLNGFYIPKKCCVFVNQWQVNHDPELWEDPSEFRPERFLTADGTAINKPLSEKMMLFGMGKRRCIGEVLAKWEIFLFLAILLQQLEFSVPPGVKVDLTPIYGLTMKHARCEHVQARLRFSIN

[1] = viability of uninfected HEp-2 cells – cell-based, HTS, cytotoxicity control for RSV inhibitor project, dose response (AID 2410); assay type: functional; conditions: human respiratory syncytial virus
INS1 = experiment: INS-1E survival protection against cytokine death – cell-based, luminescence, retest, dose response (AID 449756); assay type: functional; conditions: Rattus norvegicus;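 also: cell death triggered by IL-1 beta plus TNF-alpha plus IFN-gamma mixture; protective hits raise ATP signal compared with cytokine alone wells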
Cytochrome P450 2C19 = Cytochrome P450 2C19 (Homo sapiens, UniProt P33261); experiment: Cytochrome panel assay with activity outcomes. Panel member name: p450-cyp2c19 Compounds with AC50 equal or less than 10 uM are considered active; assay type: functional
Sequence of Cytochrome P450 2C19 (P33261 whole entry): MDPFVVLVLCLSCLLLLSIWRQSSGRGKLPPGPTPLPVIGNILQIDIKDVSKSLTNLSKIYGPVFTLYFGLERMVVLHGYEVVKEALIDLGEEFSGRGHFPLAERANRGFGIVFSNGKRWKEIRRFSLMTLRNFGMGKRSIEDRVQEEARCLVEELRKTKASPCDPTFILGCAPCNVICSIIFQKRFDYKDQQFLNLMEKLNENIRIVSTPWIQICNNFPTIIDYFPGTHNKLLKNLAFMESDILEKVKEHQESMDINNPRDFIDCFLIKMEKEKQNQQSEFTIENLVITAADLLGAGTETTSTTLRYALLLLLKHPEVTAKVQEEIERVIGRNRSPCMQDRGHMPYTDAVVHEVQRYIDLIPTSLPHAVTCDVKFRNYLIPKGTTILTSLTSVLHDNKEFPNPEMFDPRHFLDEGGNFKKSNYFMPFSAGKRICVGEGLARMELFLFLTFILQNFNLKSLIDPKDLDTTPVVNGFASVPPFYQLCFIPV

Streptokinase A = target: T2, Streptokinase A (Streptococcus pyogenes serotype M1, UniProt P10520); experiment: viability-normalized secreted streptokinase activity reduction – plasminogen activation absorbance, OD405, dose response (AID 1914); assay type: functional, Streptococcus pyogenes M1 GAS;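 also: secreted streptokinase activity via plasminogen activation per viability signal from cell pellet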
T2 sequence (P10520 whole entry): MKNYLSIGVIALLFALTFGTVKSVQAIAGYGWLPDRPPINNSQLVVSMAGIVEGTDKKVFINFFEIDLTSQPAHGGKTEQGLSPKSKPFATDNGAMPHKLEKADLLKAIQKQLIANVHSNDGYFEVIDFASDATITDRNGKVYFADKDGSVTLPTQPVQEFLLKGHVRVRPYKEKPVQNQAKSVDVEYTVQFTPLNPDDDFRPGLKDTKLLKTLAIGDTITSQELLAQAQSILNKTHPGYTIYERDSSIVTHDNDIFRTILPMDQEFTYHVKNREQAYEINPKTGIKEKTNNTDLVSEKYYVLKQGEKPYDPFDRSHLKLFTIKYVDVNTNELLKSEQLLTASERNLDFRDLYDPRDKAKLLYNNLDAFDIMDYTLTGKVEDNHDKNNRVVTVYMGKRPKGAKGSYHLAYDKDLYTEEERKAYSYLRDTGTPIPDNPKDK

[2] = NIH3T3 cell viability loss – ATP luminescence, mouse fibroblasts, counter-screen, dose response (AID 2010); assay type: functional, cell-based;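 also: cells exposed to compound for about 90 hours before reading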
Streptococcus = experiment: GAS UMAA2166 growth inhibition – luminescence, BacTiterGlo, counter-screen for streptokinase expression inhibitor project, dose response (AID 1915); assay type: functional, organism-based;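 also: potency for reduction of bacterial viability or growth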
[3] = Trypanosoma cruzi growth suppression in host cells – NIH3T3 host cells, beta-gal luminescence, confirmation (AID 2044); assay type: functional, cell-based;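 also: intracellular parasites grown in NIH/3T3 mouse fibroblasts as host cells; luminescent beta-galactosidase reporter signal from transgenic T. cruzi replicating inside host cells; inhibitors lower the luminescence signal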
[4] = tested on: Streptococcus sp. 'group A'; experiment: Streptococcus pyogenes SK(-)GAS viability under kanamycin – luminescence, BacTiterGlo, confirmation, counter-screen for streptokinase expression inhibitor project, dose response (AID 1900); assay type: functional, organism-based

Sequence of Cytochrome P450 2D6 (P10635 whole entry): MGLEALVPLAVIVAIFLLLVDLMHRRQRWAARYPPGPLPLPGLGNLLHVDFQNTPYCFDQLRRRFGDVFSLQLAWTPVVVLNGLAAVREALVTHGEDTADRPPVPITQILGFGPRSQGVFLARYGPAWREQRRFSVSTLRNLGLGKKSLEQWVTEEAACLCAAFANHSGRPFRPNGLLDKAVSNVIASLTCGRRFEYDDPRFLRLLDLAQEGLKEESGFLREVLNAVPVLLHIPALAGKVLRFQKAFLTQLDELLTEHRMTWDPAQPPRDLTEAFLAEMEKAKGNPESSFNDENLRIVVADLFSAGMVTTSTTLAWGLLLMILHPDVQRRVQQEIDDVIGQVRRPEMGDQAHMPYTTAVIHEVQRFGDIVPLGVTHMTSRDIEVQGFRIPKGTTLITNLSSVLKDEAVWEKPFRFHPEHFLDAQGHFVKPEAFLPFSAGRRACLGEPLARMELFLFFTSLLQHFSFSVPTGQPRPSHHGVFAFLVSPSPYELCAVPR
Sequence of Cytochrome P450 2C9 (P11712 whole entry): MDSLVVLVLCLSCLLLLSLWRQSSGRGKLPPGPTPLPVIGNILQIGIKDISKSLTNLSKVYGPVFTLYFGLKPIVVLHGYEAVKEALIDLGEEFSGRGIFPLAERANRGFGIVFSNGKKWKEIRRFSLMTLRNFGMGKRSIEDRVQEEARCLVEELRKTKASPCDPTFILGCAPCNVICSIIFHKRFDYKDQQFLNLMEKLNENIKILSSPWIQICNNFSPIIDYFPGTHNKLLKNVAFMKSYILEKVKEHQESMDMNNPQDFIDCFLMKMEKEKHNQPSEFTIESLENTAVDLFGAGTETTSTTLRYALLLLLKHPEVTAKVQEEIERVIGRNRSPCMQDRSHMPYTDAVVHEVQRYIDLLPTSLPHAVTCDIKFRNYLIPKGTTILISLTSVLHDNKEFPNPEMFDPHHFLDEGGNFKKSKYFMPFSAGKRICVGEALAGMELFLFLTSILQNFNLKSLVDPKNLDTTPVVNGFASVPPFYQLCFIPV

CCc1c(C)nc2ccc(Br)cc2c1Cl
AC50 (Cytochrome P450 2C9): 11.2 µM (inconclusive)

Cc1cc(F)ccc1S(=O)(=O)Nc1ccccc1C(=O)Nc1ccccc1N1CCOCC1
AC50 (Cytochrome P450 2D6): 15.8 µM (inconclusive)

Cc1ccc(C2NC(c3ccc(C)cc3)C(C)C(=NO)C2C)cc1 (stereo not drawn)
AC50 (Cytochrome P450 1A2): 15.8 µM (inconclusive)

CCOC(=O)c1[nH]c(C)c(C(=O)OCC(=O)N2c3ccccc3CC2C)c1C (stereo not drawn)
AC50 (Cytochrome P450 1A2): 12.6 µM (inconclusive)

COCCn1c(=O)c(CCc2ccccc2)nc2cnc(N(C)C)nc21
AC50 (Cytochrome P450 2D6): 10 µM (inconclusive)
AC50 (Cytochrome P450 2C9): 25.1 µM (inconclusive)

COc1ccccc1NC(=O)Nc1nc(CC(=O)N2CCN(c3ccccc3OC)CC2)cs1
CC50 [1]: 15.2 µM (active)

Cc1ccc(-n2c(CCC(=O)O)ccc2-c2cccs2)cc1C
AC50 (Cytochrome P450 2C9): 7.08 µM (inconclusive)

CN(Cc1ccco1)c1ncncc1-c1cccc(NS(C)(=O)=O)c1
AC50 (Cytochrome P450 2D6): 20 µM (inconclusive)
AC50 (Cytochrome P450 2C9): 0.501 µM (inconclusive)

CC(=O)Nc1ccc(S(=O)(=O)N2c3ccccc3NC(=O)CC2C)c(Cl)c1 (stereo not drawn)
AC50 (INS1): > 260 µM (inactive)

CC1CCN(C(=O)CCNS(=O)(=O)c2ccc(Br)cc2)CC1
AC50 (INS1): > 260 µM (inactive)

CC(C)OC(=O)C(C#N)c1nc2ccccc2nc1N1CCN(Cc2ccccc2)CC1 (stereo not drawn)
AC50 (Cytochrome P450 2D6): 0.112 µM (inconclusive)

Cc1csc2ncnc(N3CCN(S(=O)(=O)c4cccc(C(F)(F)F)c4)CC3)c12
AC50 (INS1): 3.86 µM (active)

N#CCCn1c(=O)c(-c2cccc(C#N)c2)nc2cnc(Oc3ccccc3)nc21
AC50 (Cytochrome P450 2C9): 39.8 µM (inconclusive)
AC50 (Cytochrome P450 1A2): 20 µM (inconclusive)

Clc1cccc(-c2cc3nc4c(c(N5CCN(c6cnccn6)CC5)n3n2)CCCC4)c1
CC50 [1]: 35.2 µM (active)

COc1ccc2cc3cc(C(=O)Nc4ccc5c(c4)OCO5)oc3nc2c1
AC50 (Cytochrome P450 2C9): 5.01 µM (inconclusive)

CC(C)c1nc(-c2ccccc2)c(-c2ccccc2)[nH]1
AC50 (INS1): 7.08 µM (active)

Nc1nc(Nc2ccccc2)nc2c1ncn2[C@@H]1O[C@@H](CO)[C@H](O)[C@H]1O
AC50 (Cytochrome P450 1A2): 39.8 µM (inconclusive)

CCCCCn1c(=O)c(C(=O)Nc2ncccc2C)c(O)c2ccccc21
AC50 (INS1): 10.4 µM (active)

O=c1c(-c2ccc(F)c(F)c2)nc2cncnc2n1Cc1ccccc1
AC50 (Cytochrome P450 2C19; read-out: AC50): 0.0501 µM (inconclusive)

CCOC(=O)c1cnc2ccc(OCC)cc2c1N1CCN(c2ccccc2)CC1
AC50 (INS1): 14.9 µM (active)

N#CCCn1c(=O)c(-c2ccc(Cl)cc2)nc2cnc(Oc3ccccc3)nc21
AC50 (Cytochrome P450 1A2): 0.501 µM (inconclusive)

COc1ccccc1-c1cncnc1Nc1ccc(F)cc1
AC50 (Cytochrome P450 2D6): 15.8 µM (inconclusive)

COc1ncc2nc(-c3cccs3)c(=O)n(CCc3ccccc3)c2n1
AC50 (Cytochrome P450 2C19; read-out: AC50): 2.51 µM (inconclusive)

Cc1cc(C)nc(SCC(=O)NC2=NN=C(c3ccc(Br)cc3)CS2)n1
EC50 (Streptokinase A): > 150 µM (not active)
EC50 [2]: > 60 µM (inconclusive)
EC50 (Streptococcus): 3.62 µM (active)
EC50 [3]: 1.65 µM (active)
EC50 [4]: 2.6 µM (active)
AC50 (INS1): 4.78 µM (active)

COC(=O)[C@@]1(Cc2ccc(OC)cc2)[C@H]2c3cc(C(=O)N(C)C)[nH]c3C[C@H]2CN1C(=O)c1ccccc1
AC50 (Cytochrome P450 1A2): 20 µM (inconclusive)

COCCNC(=O)COc1ccc(Oc2ccccc2)cc1
AC50 (Cytochrome P450 1A2): 25.1 µM (inconclusive)

CCOCC(=O)Nc1ccc([N+](=O)[O-])cc1OC
CC50 [1]: > 50 µM (active)

O=C(c1cc(O)nc2ccc(Br)cc12)N1CCC2(CC1)OCCO2
AC50 (Cytochrome P450 2C9): 39.8 µM (inconclusive)
AC50 (Cytochrome P450 2C19; read-out: AC50): 28.2 µM (inconclusive)

O=C1CCC(/C=C/c2ccccc2)=NN1Cc1ccccc1Cl
CC50 [1]: 27 µM (active)

O=C(CN1CCCCC1)Nc1ccc(Br)cc1C(=O)c1ccccc1Cl
AC50 (Cytochrome P450 2D6): 11.2 µM (inconclusive)

CC(=O)OC[C@@H]1O[C@@H](O/N=C2/C[C@@H](O)[C@@H](O)[C@@H]3[C@@H]4C(=O)N(C[C@@H]5CCCO5)C(=O)[C@H]4CC[C@H]23)[C@H](OC(C)=O)[C@H](OC(C)=O)[C@@H]1OC(C)=O
AC50 (Cytochrome P450 2D6): 5.01 µM (inconclusive)

Cc1noc(C)c1C(=O)N1CCC2(CCCN(CC(C)C)C2)CC1
AC50 (Cytochrome P450 2C9): 39.8 µM (inconclusive)
AC50 (Cytochrome P450 2C19; read-out: AC50): 39.8 µM (inconclusive)

c1ccc(C(c2ccccc2)N2CCC3(CCNCC3)CC2)cc1
AC50 (Cytochrome P450 2C9): 31.6 µM (inconclusive)

Cc1cccc2c1-c1sc(C(=O)N3CCc4ccccc4C3)cc1CO2
CC50 [1]: 11.6 µM (active)

CCCc1cc(COC)c(C#N)c(O)n1
AC50 (Cytochrome P450 1A2): 6.31 µM (inconclusive)

c1ccc(-c2nnn(CCN3CCCCC3)n2)cc1
AC50 (Cytochrome P450 2D6): 3.16 µM (inconclusive)
AC50 (Cytochrome P450 1A2): 5.01 µM (inconclusive)

N#Cc1cccc(-c2nc3cnc(N4CCOCC4)nc3n(C[C@H]3CCCO3)c2=O)c1
AC50 (Cytochrome P450 1A2): 0.794 µM (inconclusive)

CCCN=C(S)N1CCN(c2nc(C)nc3sc4c(c23)CCCC4)CC1
CC50 [1]: 11.2 µM (active)

O=C(Nc1ccccc1N1CCCCC1)c1cc(S(=O)(=O)N2CCOCC2)ccc1Cl
CC50 [1]: 21.7 µM (active)

Clc1ccc([C@@H](OCCN2CCCCC2)c2ccccc2)cc1
AC50 (Cytochrome P450 2C19; read-out: AC50): 6.31 µM (inconclusive)
AC50 (Cytochrome P450 1A2): 12.6 µM (inconclusive)

O=C1CSC(c2ccccn2)N1c1ccc(Cl)c(Cl)c1 (stereo not drawn)
AC50 (Cytochrome P450 2C9): 20 µM (inconclusive)

COc1cccc(N/C(C)=C/C(=O)c2ccc(Br)cc2)c1
CC50 [1]: 25.5 µM (active)

CCOc1ccc(NC(=O)CN2CCN(S(=O)(=O)c3ccc(Cl)cc3)CC2)cc1
AC50 (Cytochrome P450 2C9): 2 µM (inconclusive)
AC50 (Cytochrome P450 2C19; read-out: AC50): 0.562 µM (inconclusive)

O=C(CCn1nc(-c2ccc(Cl)cc2)ccc1=O)NCc1ccccn1
AC50 (Cytochrome P450 2C9): 5.01 µM (inconclusive)
AC50 (Cytochrome P450 1A2): 15.8 µM (inconclusive)

COc1ccccc1CNS(=O)(=O)c1ccc2ncc(C(=O)O)c(O)c2c1
AC50 (Cytochrome P450 2C9): 11.2 µM (inconclusive)
AC50 (Cytochrome P450 1A2): 10 µM (inconclusive)

COc1ccc(CCNC(=O)CCN2C(=O)C(C)Oc3ccc(C)cc32)cc1OC (stereo not drawn)
AC50 (Cytochrome P450 2C9): 5.62 µM (inconclusive)

CN(Cc1ccco1)c1ncncc1-c1cccc(C#N)c1
AC50 (Cytochrome P450 1A2): 12.6 µM (inconclusive)

CC(C)(C)c1c2c(c(C(C)(C)C)c3c1OCN(Cc1ccccc1)C3)OCN(Cc1ccccc1)C2
AC50 (Cytochrome P450 2C19): inconclusive

COC(=O)C1=C(c2ccccc2OCc2ccccc2)C[C@@H]2CC[C@H]1N2C(=O)NCc1ccc([N+](=O)[O-])cc1
CC50 [1]: 37.6 µM (active)

CC(C)(C)c1ccc(OCC(=O)N2CCN(c3ncccn3)CC2)cc1
EC50 (Streptokinase A): > 150 µM (not active)
EC50 (Streptococcus): > 150 µM (not active)
EC50 [4]: > 150 µM (not active)

O=C(O)c1ccccc1/C=N\N=C1c2ccccc2-c2ccccc21
AC50 (Cytochrome P450 2C9): 7.94 µM (inconclusive)

CCCC[C@@H]1C[C@H]1C(NC(=O)c1ccc(C(F)(F)F)cc1)c1ccc(C(=O)OC)cc1 (stereo partly drawn)
AC50 (Cytochrome P450 1A2): 15.8 µM (inconclusive)

O=c1c(-c2cc(F)cc(F)c2)nc2cnc(N3CCNCC3)nc2n1C1CC1
AC50 (Cytochrome P450 2C19; read-out: AC50): 20 µM (inconclusive)

c1cnc(Nc2nc(-c3ccc4ccccc4c3)cs2)nc1
AC50 (Cytochrome P450 2C19): inconclusive

c1ccc(N2CCC3(CCNCC3)CC2)cc1
AC50 (Cytochrome P450 2D6): 15.8 µM (inconclusive)

COCCn1c(=O)c(-c2cn(C)c3ccccc23)nc2cnc(Oc3ccccc3)nc21
AC50 (Cytochrome P450 1A2): 10 µM (inconclusive)

Cc1ccc(-c2cccc(C(=O)NCCc3ccccc3)n2)c2ccccc12
CC50 [1]: 16.2 µM (active)

CNC(C)c1cc(OC)ccc1OC (stereo not drawn)
AC50 (Cytochrome P450 2D6): 25.1 µM (inconclusive)

N=C(N)C(/N=N\c1ccccc1)C(=N)N (stereo not drawn)
AC50 (Cytochrome P450 1A2): 5.01 µM (inconclusive)

O=C1N=C(N/N=C/c2ccccc2O)SC1Cc1ccc(F)cc1 (stereo not drawn)
EC50 (Streptokinase A): > 150 µM (not active)
EC50 (Streptococcus): > 150 µM (not active)
EC50 [4]: 16 µM (active)
AC50 (INS1): 4.67 µM (active)

COc1ccc(/N=C2/SCC(c3ccc([N+](=O)[O-])cc3)=NN2CCO)cc1
CC50 [1]: 15.8 µM (active)

Cc1cccn2c(/C=N/OCc3ccc(F)cc3)c(-c3ccc(Cl)cc3)nc12
AC50 (Cytochrome P450 2C19; read-out: AC50): 3.16 µM (inconclusive)

O=C1N(c2ccccc2)c2ccccc2C1(Cc1ccncc1)Cc1ccncc1 [LINOPIRDINE]
AC50 (Cytochrome P450 1A2): 31.6 µM (inconclusive)

Source: ChEMBL document CHEMBL1201862, “PubChem BioAssay data set” (2004)
